“Also recorded” adds a separate entry of the source. Marks after values point to notes of the source that are not given here.
System: croton-oil-inflamed mouse skin
Experiment: Croton oil-induced inflammation on the mouse ear (irritative contact dermatitis model), leukocyte infiltration of the skin
Format: in vivo
Conditions: metronidazole 0.75%; for Inhibition [%] of the Skin Infiltration of Granulocytes & Monocytes (Myelo-Peroxidase Activity) / Inhibition [%] of the Skin Infiltration of Neutrophilic (Elastase Activity): croton oil dissolving-out on mouse ear, inhibition vs croton oil + vehicle treatment, azelaic acid 20%, methylprednisolone 0.1%, ethanol/isopropyl myristat; for Therapeutic effect in the inflammation model in comparison to the vehicle (peroxidase and elastase activity in the skin): azelaic acid 20% in ethanol/isopropyl myristat
Text: The induction of an inflammatory reaction (irritative contact dermatitis) is a common model for pharmacological evaluation of the anti-inflammatory potential of topically or systemically administered test substances (Trancik and Lowe (1985) Evaluation of Topical Nonsteroidal Anti-Inflammatory Agents, Models in Dermatology, H. Maibach and N. J. Lowe. Basel, Karger: 35-42). It has proven effective, i.a., in the testing of non-steroidal antiphlogistic agents as well as in glucocorticoid steroids and is regarded as the most reproducible in-vivo test for the evaluation of topical anti-inflammatory substances (Lorenzetti (1975) Animal to Clinical Correlation of Topical Anti-Inflammatory Efficacy. Animal Models in Dermatology. H. Maibach. Basel Karger: 212-225).
The application of the phorbol ester croton oil to mouse ears results in an acute, inflammatory reaction with edema and immigration of primarily polymorphonuclear granulocytes that reaches its maximum within 24 hours. In this connection, test substances can be administered either preventively (i.e., before administration of the inflammatory stimuli) or simultaneously with croton oil. The croton oil-induced inflammation on the mouse ear is not only a model of irritative and/or allergic contact dermatitis, but also other skin diseases that are associated with a high inflammation and immigration of granulocytes. These include psoriasis, atopic dermatis, common acne and the inflammatory stage of rosacea.
Rosacea is a disease of unknown etiology that is considered by many authors to be in the acne group and is generated on the latter and can remove the latter over the course of time. The disease is divided into three stages, of which in particular Rosacea II and III are characterized by inflammatory nodules, nodes, and patches. A leukocytic infiltrate is found by histology (Braun-Falco et al. (1995) Dermatologie und Venerologie. Heidelberg, Springer). Because of the inflammatory components of these stages with leukocyte infiltration of the skin, the croton oil model reflects aspects of this disease.
The activity included, i.a., the immigrations of leukocytes, measured as peroxidase activity in the skin, as well as the immigration of neutrophilic granulocytes, measured as elastase activity in the skin (Table 1).

Structure (SMILES) | Inhibition [%] of the Skin Infiltration of Granulocytes & Monocytes (Myelo-Peroxidase Activity) | Inhibition [%] of the Skin Infiltration of Neutrophilic (Elastase Activity) | Therapeutic effect in the inflammation model in comparison to the vehicle (peroxidase and elastase activity in the skin)
O=C(O)CCCCCCCC(=O)O [Azelaic Acid, azelaic acid] | 21 (n.s.)* % | 11 (n.s.)* % | did not show such high, therapeutic effects; also recorded: do not show such high, therapeutic effects
C[C@H]1C[C@@H]2[C@H]([C@@H](O)C[C@@]3(C)[C@H]2CC[C@]3(O)C(=O)CO)[C@@]2(C)C=CC(=O)C=C12 [Methylprednisolone] | 90 (p < 0.05)* % | 95 (p < 0.05)* % | 
Cc1ncc([N+](=O)[O-])n1CCO [Metroidazole, 1-(2-hydroxyethyl)-2-methyl-5-nitroimidazole] | 9 (n.s.)* % | 18 (n.s.)* % | did not show such high, therapeutic effects; also recorded: do not show such high, therapeutic effects

— US20050026982A1, “Composition that consists of alkanedicarboxylic acids and a pharmaceutical active ingredient” (priority 2003, published 2005)
